In patent US20240376085A1 (Janssen Pharmaceutica NV, priority 2021, published 2024):

What was measured:
[1] = system: IL-17A-induced G-CSF production in human normal keratinocyte (NHK); experiment: NHK assay: IL-17A-induced G-CSF production in normal human keratinocytes; assay type: cell-based; conditions: IL-17A 5 ng/mL, 24 h, average if tested more than once
How it was run: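 Stimulus rhIL-17A 5 ng/mL final, premixed 1 h rt with compound; adult NHK, 5% FBS, 0.2% DMSO. Viability by CellTiter-Glo vs DMSO.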

[2] = molecular target: T1, IL-17A : IL-17RA binding (Homo sapiens, UniProt Q16552, K93Q); experiment: IL-17A(FLAG-tagged):IL-17RA(His-tagged) binding disruption Eu-HTRF assay, Protocol 1; conditions: FLAG-IL-17A 2.5 nM at 2x final concentration; average if tested more than once
T1 construct: Name: IL-17A-Flag
How it was run: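 IC50 came from a one-site competition fit of the acceptor/donor (665/620 nm) HTRF ratio. His-tagged IL-17RA, Eu-anti-FLAG and D2-anti-His were added after a 1 h rt compound preincubation with FLAG-tagged IL-17A dimer in PBS/0.01% Triton X-100, followed by 2 h at rt before reading.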

T1 sequence (Q16552 with tags, fused parts or gaps K93Q): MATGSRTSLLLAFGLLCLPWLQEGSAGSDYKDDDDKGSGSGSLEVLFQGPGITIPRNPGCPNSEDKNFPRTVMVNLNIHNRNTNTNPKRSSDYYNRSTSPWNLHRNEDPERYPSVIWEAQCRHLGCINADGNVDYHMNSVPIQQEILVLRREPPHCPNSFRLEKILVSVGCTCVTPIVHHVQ

Row | Compound | IC50 [1] | IC50 [2] | IC50 ([1]; Homo sapiens, Keratinocyte)
1 | CC(C)n1nccc1C(=O)N[C@H](c1nc2ccc([C@H](NC(=O)CC3CC(F)(F)C3)C3CC3)cc2[nH]1)C1CCC(F)(F)CO1 (single isomer, unassigned) [Example 262, N—((R)-(6-((R)-Cyclopropyl(2-(3,3-difluorocyclobutyl)acetamido)methyl)-1H-benzo[d]imidazol-2-yl)((R*)-5,5-difluorotetrahydro-2H-pyran-2-yl)methyl)-1-isopropyl-1H-pyrazole-5-carboxamide] | < 50 nM | > 100 nM | 
2 | CC(C)c1nocc1C(=O)N[C@H](c1nc2cc([C@@H](C)NC(=O)CCC(F)(F)F)ccc2[nH]1)C1CCC(F)(F)CC1 [Example 204, N—((S)-(4,4-Difluorocyclohexyl)(5-((R)-1-(4,4,4-trifluorobutanamido)ethyl)-1H-benzo[d]imidazol-2-yl)methyl)-3-isopropylisoxazole-4-carboxamide] |  | < 50 nM | < 50 nM
3 | C[C@@H](NC(=O)CCC(F)(F)F)c1ccc2[nH]c([C@@H](NC(=O)c3conc3CCC(F)(F)F)C3CCC(F)(F)CC3)nc2c1 [Example 214, N—((S)-(4,4-Difluorocyclohexyl)(5-((R)-1-(4,4,4-trifluorobutanamido)ethyl)-1H-benzo[d]imidazol-2-yl)methyl)-3-(3,3,3-trifluoropropyl)isoxazole-4-carboxamide] |  | 50 to 100 nM | < 50 nM
4 | Cn1nccc1C(=O)N[C@H](c1nc2cc(C(NC(=O)CCC(F)(F)F)C3CC3)ccc2[nH]1)C1CCC(F)(F)CC1 (single isomer, unassigned) [Example 55, N—((S)-(5-((R*)-Cyclopropyl(4,4,4-trifluorobutanamido)methyl)-1H-benzo[d]imidazol-2-yl)(4,4-difluorocyclohexyl)methyl)-1-methyl-1H-pyrazole-5-carboxamide] | > 100 nM | > 100 nM | 
5 | CC(Cn1ncc(C(=O)N[C@H](c2nc3ccc([C@@H](C)NC(=O)CCC(F)(F)F)cc3[nH]2)C2CCC(F)(F)CC2)n1)C(F)(F)F (single isomer, unassigned) [Example 70, N—((S)-(4,4-Difluorocyclohexyl)(6-((R)-1-(4,4,4-trifluorobutanamido)ethyl)-1H-benzo[d]imidazol-2-yl)methyl)-2-((S*)-3,3,3-trifluoro-2-methylpropyl)-2H-1,2,3-triazole-4-carboxamide] | > 100 nM | > 100 nM | 
6 | COCCn1nncc1C(=O)N[C@H](c1nc2cc([C@@H](C)NC(=O)CCC(F)(F)F)ccc2[nH]1)C1CCC(F)(F)CC1 [Example 15, N—[(S)-(4,4-Difluorocyclohexyl)-[6-[(1R)-1-(4,4,4-trifluorobutanoylamino)ethyl]-1H-benzimidazol-2-yl]methyl]-3-(2-methoxyethyl)triazole-4-carboxamide] |  | > 100 nM | > 100 nM
7 | C[C@@H](NC(=O)CCC(F)(F)F)c1ccc2nc([C@@H](NC(=O)c3cn(CC4CC(F)(F)C4)nn3)C3CCC(F)(F)CC3)[nH]c2c1 [Example 65, 1-((3,3-Difluorocyclobutyl)methyl)-N—((S)-(4,4-difluorocyclohexyl)(6-((R)-1-(4,4,4-trifluorobutanamido)ethyl)-1H-benzo[d]imidazol-2-yl)methyl)-1H-1,2,3-triazole-4-carboxamide] |  | > 100 nM | > 100 nM
8 | CC(C)(OC[C@H](NC(=O)c1nocc1C1CC1)c1nc2cc([C@H](NC(=O)CC3CC(F)(F)C3)C3CC3)ccc2[nH]1)C(F)(F)F [Example 268, 4-Cyclopropyl-N—((R)-1-(5-((R)-cyclopropyl(2-(3,3-difluorocyclobutyl)acetamido)methyl)-1H-benzo[d]imidazol-2-yl)-2-((1,1,1-trifluoro-2-methylpropan-2-yl)oxy)ethyl)isoxazole-3-carboxamide] |  | < 50 nM | 50 to 100 nM
9 | C[C@@H](NC(=O)CCC(F)(F)F)c1ccc2[nH]c([C@@H](NC(=O)c3c(C#N)cnn3CC3CCC3)C3CCC(F)(F)CC3)nc2c1 [Example 90, 4-Cyano-1-(cyclobutylmethyl)-N—((S)-(4,4-difluorocyclohexyl)(5-((R)-1-(4,4,4-trifluorobutanamido)ethyl)-1H-benzo[d]imidazol-2-yl)methyl)-1H-pyrazole-5-carboxamide] |  | > 100 nM | > 100 nM
10 | C[C@@H](NC(=O)CCC(F)(F)F)c1ccc2[nH]c([C@@H](NC(=O)c3ncn(CCC(F)F)n3)C3CCC(F)(F)CC3)nc2c1 [Example 40, N—[(S)-(4,4-Difluorocyclohexyl)-[6-[(1R)-1-(4,4,4-trifluorobutanoylamino)ethyl]-1H-benzimidazol-2-yl]methyl]-1-(3,3-difluoropropyl)-1,2,4-triazole-3-carboxamide] |  | > 100 nM | > 100 nM
11 | C[C@@H](NC(=O)CCC(F)(F)F)c1ccc2[nH]c([C@@H](NC(=O)c3cn(CC4CC(F)(F)C4(F)F)nn3)C3CCC(F)(F)CC3)nc2c1 (stereo partly drawn) [Example 84, N—((S)-(4,4-Difluorocyclohexyl)(5-((R)-1-(4,4,4-trifluorobutanamido)ethyl)-1H-benzo[d]imidazol-2-yl)methyl)-1-((2,2,3,3-tetrafluorocyclobutyl)methyl)-1H-1,2,3-triazole-4-carboxamide] |  | > 100 nM | > 100 nM
12 | CC(C)n1nccc1C(=O)N[C@H](c1nc2ccc([C@@H](C)NC(=O)CC(C)C(F)(F)F)cc2[nH]1)C1CCC(F)(F)CC1 (single isomer, unassigned) [Example 139, N—((S)-(4,4-Difluorocyclohexyl)(6-((R)-1-((S*)-4,4,4-trifluoro-3-methylbutanamido)ethyl)-1H-benzo[d]imidazol-2-yl)methyl)-1-isopropyl-1H-pyrazole-5-carboxamide] | < 50 nM | > 100 nM | 
13 | CC(C)n1nccc1C(=O)N[C@H](c1nc2cc([C@@H](NC(=O)CC3CC(F)(F)C3)C3CC3)ccc2[nH]1)C1CCC(F)(F)CC1 [Example 146, N—((S)-(5-((S)-Cyclopropyl(2-(3,3-difluorocyclobutyl)acetamido)methyl)-1H-benzo[d]imidazol-2-yl)(4,4-difluorocyclohexyl)methyl)-1-isopropyl-1H-pyrazole-5-carboxamide] |  | > 100 nM | > 100 nM
14 | C[C@@H](NC(=O)CCC(F)(F)F)c1ccc2[nH]c([C@@H](NC(=O)c3ccn4c3CCC4)C3CCC(F)(F)CC3)nc2c1 [Example 210, N—((S)-(4,4-Difluorocyclohexyl)(5-((R)-1-(4,4,4-trifluorobutanamido)ethyl)-1H-benzo[d]imidazol-2-yl)methyl)-2,3-dihydro-1H-pyrrolizine-7-carboxamide] |  | > 100 nM | > 100 nM
15 | C[C@H](OCC(NC(=O)c1nonc1C1CC1)c1nc2ccc([C@H](NC(=O)CC3CC(F)(F)C3)C3CC3)cc2[nH]1)C(F)(F)F (single isomer, unassigned) [Example 154, 4-Cyclopropyl-N—((R*)-1-(6-((R)-cyclopropyl(2-(3,3-difluorocyclobutyl)acetamido)methyl)-1H-benzo[d]imidazol-2-yl)-2-(((S)-1,1,1-trifluoropropan-2-yl)oxy)ethyl)-1,2,5-oxadiazole-3-carboxamide] |  | < 50 nM | 50 to 100 nM
16 | C[C@@H](NC(=O)CCC(F)(F)F)c1ccc2[nH]c([C@@H](NC(=O)CC3CC3(F)F)C3CCC(F)(F)CC3)nc2c1 (single isomer, unassigned) [Example 108, N—((R)-1-(2-((S)-(4,4-Difluorocyclohexyl)(2-((S*)-2,2-difluorocyclopropyl)acetamido)methyl)-1H-benzo[d]imidazol-5-yl)ethyl)-4,4,4-trifluorobutanamide] | > 100 nM | > 100 nM | 
17 | C[C@@H](NC(=O)CCC(F)(F)F)c1ccc2[nH]c([C@@H](NC(=O)c3nccn3CCC(F)(F)F)C3CCC(F)(F)CC3)nc2c1 [Example 227, N—((S)-(4,4-Difluorocyclohexyl)(5-((R)-1-(4,4,4-trifluorobutanamido)ethyl)-1H-benzo[d]imidazol-2-yl)methyl)-1-(3,3,3-trifluoropropyl)-1H-imidazole-2-carboxamide] |  | > 100 nM | > 100 nM
18 | CC(NC(=O)CCC(F)(F)F)c1ccc2nc([C@H](CC(C)(C)C(F)(F)F)NC(=O)c3ccnn3CCC(F)(F)F)[nH]c2c1 (single isomer, unassigned) [Example 229, N—((S)-4,4,4-Trifluoro-3,3-dimethyl-1-(6-((S*)-1-(4,4,4-trifluorobutanamido)ethyl)-1H-benzo[d]imidazol-2-yl)butyl)-1-(3,3,3-trifluoropropyl)-1H-pyrazole-5-carboxamide] |  | > 100 nM | > 100 nM
19 | C[C@@H](NC(=O)CCC(F)(F)F)c1ccc2[nH]c([C@@H](NC(=O)c3cnnn3CC3CC3(F)F)C3CCC(F)(F)CC3)nc2c1 (stereo partly drawn) [Example 80, N—((S)-(4,4-Difluorocyclohexyl)(5-((R)-1-(4,4,4-trifluorobutanamido)ethyl)-1H-benzo[d]imidazol-2-yl)methyl)-1-((2,2-difluorocyclopropyl)methyl)-1H-1,2,3-triazole-5-carboxamide] |  | > 100 nM | 50 to 100 nM
20 | Cc1nonc1C(=O)N[C@@H](CC(C)(C)C(F)(F)F)c1nc2ccc([C@H](NC(=O)CC3CC3(F)F)C3CC3)cc2[nH]1 (single isomer, unassigned) [Example 183, N—((S)-1-(6-((R)-Cyclopropyl(2-((R*)-2,2-difluorocyclopropyl)acetamido)methyl)-1H-benzo[d]imidazol-2-yl)-4,4,4-trifluoro-3,3-dimethylbutyl)-4-methyl-1,2,5-oxadiazole-3-carboxamide] |  | < 50 nM | > 100 nM
